Results from ChEMBL document CHEMBL3885861, “Open TG-GATES”.

Species on record: Rattus norvegicus
Experiment: Open TG-GATES - Regimen: Single
Type: toxicity, organism-based, Sprague-Dawley
Parameters: regimen Single, gender Male, age 6 weeks
Conditions: in vivo, ip, 0 mg/kg, route intraperitoneal injection, dose level Control; for APTT / Bas / Eos / Fbg / Hb / Ht / Lym / MCH / MCHC / MCV / Mono / Neu / PT / Plat / RBC / Ret / WBC: tissue Blood; for KIDNEY_L / KIDNEY_R / KIDNEY_TOTAL: tissue Kidney; for LIVER: tissue Liver; for A/G / ALP / ALT / AST / BUN / CRE / Ca / Cl / DBIL / GLC / IP / K / LDH / Na / PL / RALB / TBIL / TC / TG / TP / gamma-GTP: tissue Plasma

## N[C@H]1C(O)O[C@H](CO)[C@@H](O)[C@@H]1O (some centres not stated) [GLUCOSAMINE]
3 h
  TERMINAL_BW: 190.4 g
  APTT: 17.1 s
  Bas: 0.2%
  Eos: 0.6%
  Fbg: 273.4 mg/dL
  Hb: 12.6 g/dL
  Ht: 38.6%
  Lym: 73.6%
  MCH: 20.7 pg
  MCHC: 32.7%
  MCV: 63.4 fL
  Mono: 3.8%
  Neu: 20.2%
  PT: 15.5 s
  Plat: 111.6 x10_4/uL
  RBC: 609.4 x10_4/ul
  Ret: 9.4%
  WBC: 98.5 x10_2/uL
  KIDNEY_L: 0.9 g
  KIDNEY_R: 0.9 g
  KIDNEY_TOTAL: 1.7 g
  LIVER: 8.4 g
  A/G: 0.9
  ALP: 1386.8 IU/L
  ALT: 42.2 IU/L
  AST: 77 IU/L
  BUN: 9.6 mg/dL
  CRE: 0.2 mg/dL
  Ca: 10.5 mg/dL
  Cl: 106.4 meq/L
  DBIL: 0.01 mg/dL
  GLC: 175.4 mg/dL
  IP: 9.4 mg/dL
  K: 4.4 meq/L
  LDH: 61.2 IU/L
  Na: 142.2 meq/L
  PL: 141.6 mg/dL
  RALB: 2.4 g/dL
  TBIL: 0.052 mg/dL
  TC: 79.2 mg/dL
  TG: 47.8 mg/dL
  TP: 5.2 g/dL
  gamma-GTP: 0.8 IU/L
6 h
  TERMINAL_BW: 188.5 g
  APTT: 18.8 s
  Bas: 0.2%
  Eos: 0%
  Fbg: 298.6 mg/dL
  Hb: 12.9 g/dL
  Ht: 39.6%
  Lym: 62.6%
  MCH: 21.3 pg
  MCHC: 32.6%
  MCV: 65.5 fL
  Mono: 2%
  Neu: 34%
  PT: 15.8 s
  Plat: 113.1 x10_4/uL
  RBC: 604.2 x10_4/ul
  Ret: 9.4%
  WBC: 79.2 x10_2/uL
  KIDNEY_L: 0.8 g
  KIDNEY_R: 0.8 g
  KIDNEY_TOTAL: 1.6 g
  LIVER: 7.8 g
  A/G: 0.9
  ALP: 1323.4 IU/L
  ALT: 36.2 IU/L
  AST: 70.2 IU/L
  BUN: 8.2 mg/dL
  CRE: 0.2 mg/dL
  Ca: 10.3 mg/dL
  Cl: 106.8 meq/L
  DBIL: 0.008 mg/dL
  GLC: 178.6 mg/dL
  IP: 9.8 mg/dL
  K: 4 meq/L
  LDH: 51.8 IU/L
  Na: 142.4 meq/L
  PL: 144 mg/dL
  RALB: 2.5 g/dL
  TBIL: 0.052 mg/dL
  TC: 82.8 mg/dL
  TG: 41.4 mg/dL
  TP: 5.3 g/dL
  gamma-GTP: 1 IU/L
9 h
  TERMINAL_BW: 185.1 g
  APTT: 17 s
  Bas: 0.2%
  Eos: 0.8%
  Fbg: 298.8 mg/dL
  Hb: 13 g/dL
  Ht: 40.1%
  Lym: 66.6%
  MCH: 21.2 pg
  MCHC: 32.5%
  MCV: 65.3 fL
  Mono: 2.4%
  Neu: 29.6%
  PT: 15.7 s
  Plat: 109.5 x10_4/uL
  RBC: 615 x10_4/ul
  Ret: 9.4%
  WBC: 85.2 x10_2/uL
  KIDNEY_L: 0.8 g
  KIDNEY_R: 0.8 g
  KIDNEY_TOTAL: 1.6 g
  LIVER: 7.2 g
  A/G: 0.9
  ALP: 1439.4 IU/L
  ALT: 37.6 IU/L
  AST: 78 IU/L
  BUN: 7.6 mg/dL
  CRE: 0.2 mg/dL
  Ca: 10.4 mg/dL
  Cl: 107.4 meq/L
  DBIL: 0.014 mg/dL
  GLC: 157.4 mg/dL
  IP: 10.3 mg/dL
  K: 3.6 meq/L
  LDH: 51.6 IU/L
  Na: 143.2 meq/L
  PL: 131.4 mg/dL
  RALB: 2.5 g/dL
  TBIL: 0.078 mg/dL
  TC: 79.4 mg/dL
  TG: 18.4 mg/dL
  TP: 5.3 g/dL
  gamma-GTP: 0.6 IU/L
24 h
  TERMINAL_BW: 201.5 g
  APTT: 17.2 s
  Bas: 0.2%
  Eos: 1.4%
  Fbg: 293.6 mg/dL
  Hb: 12.9 g/dL
  Ht: 38.9%
  Lym: 77.2%
  MCH: 20.8 pg
  MCHC: 33.1%
  MCV: 62.6 fL
  Mono: 2.8%
  Neu: 17.2%
  PT: 16.2 s
  Plat: 117.8 x10_4/uL
  RBC: 622.4 x10_4/ul
  Ret: 8.9%
  WBC: 96.4 x10_2/uL
  KIDNEY_L: 0.9 g
  KIDNEY_R: 0.9 g
  KIDNEY_TOTAL: 1.8 g
  LIVER: 9 g
  A/G: 0.9
  ALP: 1430 IU/L
  ALT: 39.8 IU/L
  AST: 76.2 IU/L
  BUN: 13.6 mg/dL
  CRE: 0.2 mg/dL
  Ca: 10.4 mg/dL
  Cl: 105.8 meq/L
  DBIL: 0.012 mg/dL
  GLC: 185.2 mg/dL
  IP: 8.3 mg/dL
  K: 4.3 meq/L
  LDH: 108.2 IU/L
  Na: 142 meq/L
  PL: 151.6 mg/dL
  RALB: 2.5 g/dL
  TBIL: 0.04 mg/dL
  TC: 80.4 mg/dL
  TG: 69.8 mg/dL
  TP: 5.5 g/dL
  gamma-GTP: 0.4 IU/L
